# Measured values reported in patent US20170152245A1 (National Taiwan University, priority 2015, published 2017).
# Test system: human platelet suspension
# Test: U46619-induced platelet aggregation in human platelet suspension
# Assay type: cell-based
# Details: Homo sapiens, Platelet, U46619-induced aggregation, platelet suspension; read-out: P.S(U46619) IC50
# Protocol: Human platelet suspension (PS) was prepared according to the method described previously. Briefly, blood sample, freshly obtained from healthy volunteers who had taken no medications during the preceding 2 weeks, was treated with acid citrate/dextrose (ACD) in a volume ratio of 9:1. After centrifugation at 120 g, 25° C. for 9 min, platelet-rich plasma was transferred into another plastic tube and incubated with heparin (6.4 U/ml) as well as prostaglandin E1 (1 μM). Platelets were spun down by centrifugation at 500 g, 25° C. for 8 min and subsequently washed two times with Tyrode solution (NaH2PO4 0.4 mM; NaCl 136.9 mM; KCl […]; NaHCO3 11.9 mM; CaCl2 2 mM; MgCl2 2.1 mM; glucose 11.1 mM; BSA 3.5 mg/ml; pH 7.35-7.4). The washed platelets were finally suspended in Tyrode's solution and the platelet count was adjusted to 3.75×10^8 platelets/ml. For platelet-rich plasma (PRP) preparation, whole blood was anticoagulated with 1/10 vol of sodium citrate (3.8%, w/v) and centrifuged at 150 g, 25° C. for 9 min.
# Platelet aggregation was measured turbidimetrically with a Lumi-aggregometer (Payton Scientific) at 37° C. under stirring condition (900 rpm). Platelet suspensions were prewarmed to 37° C. for 2 min in a silicone-treated glass cuvette. Nstpbp5185 was added 3 min before the addition of platelet-aggregation inducers. The extent of platelet aggregation was determined by recording the increase of light transmission relative to that of control (maximal aggregation, as 100%) for 6 min after the addition of inducer. The final volume and platelet count for measuring platelet aggregation were 500 μl and 3×10^8/ml, respectively.
row,IC50,Structure (SMILES)
1,5.22 µM,"Cc1cccc(Cn2c(-c3ccc(C)o3)nc3ccc(Cl)cc32)c1 [Example 52b, 6-chloro-1-(3-methylbenzyl)-2-(5-methyl-2-furyl)benzimidazole]"
2,127 µM,"Cc1ccc(-c2nc3cc(Cl)ccc3n2Cc2ccc(Cl)cc2)o1 [Example 43b, 5-chloro-1-(4-chlorobenzyl)-2-(5-methyl-2-furyl)benzimidazole]"
3,3.1 µM,"Cc1ccc(-c2nc3ccc(Cl)cc3n2Cc2cccc(Cl)c2)o1 [Example 44b, 6-chloro-1-(3-chlorobenzyl)-2-(5-methyl-2-furyl)benzimidazole]"
4,3.55 µM,"Cc1ccc(-c2nc3ccc(Cl)cc3n2Cc2ccccc2)o1 [Example 42a, 1-benzyl-6-chloro-2-(5-methyl-2-furyl)benzimidazole]"
5,5.69 µM,"Cc1ccc(-c2nc3cc(Cl)c(Cl)cc3n2Cc2ccccc2C)o1 [Example 68, 5,6-dichloro-1-(2-methylbenzyl)-2-(5-methyl-2-furyl)benzimidazole]"
6,7.52 µM,"Cc1ccc(-c2nc3ccc(Cl)cc3n2Cc2ccccc2Cl)o1 [Example 45b, 6-chloro-1-(2-chlorobenzyl)-2-(5-methyl-2-furyl)benzimidazole]"
7,33.7 µM,"Cc1ccc2[nH]c(-c3ccc(C)o3)nc2c1 [Example 29, 5-methyl-2-(5-methyl-2-furyl)benzimidazole]"
8,> 50 µM,"Cc1ccc(-c2nc3ccc(C(=O)c4ccccc4)cc3n2Cc2ccccc2C)o1 [Example 83, 6-benzoyl-1-(2-methylbenzyl)-2-(5-methyl-2-furyl)benzimidazole]"
9,> 50 µM,"Cc1ccc(Cn2c(-c3ccc(C)o3)nc3ccc(C(=O)c4ccccc4)cc32)cc1 [Example 81, 6-benzoyl-1-(4-methylbenzyl)-2-(5-methyl-2-furyl)benzimidazole]"
10,27.4 µM,"COc1cccc(Cn2c(-c3ccc(C)o3)nc3ccc(Cl)cc32)c1 [Example 50b, 6-chloro-1-(3-methoxybenzyl)-2-(5-methyl-2-furyl)benzimidazole]"
11,29.9 µM,"Cc1cccc(Cn2c(-c3ccc(C)o3)nc3cc(Cl)ccc32)c1 [Example 52a, 5-chloro-1-(3-methylbenzyl)-2-(5-methyl-2-furyl)benzimidazole]"
12,34.5 µM,"COc1ccc(Cn2c(-c3ccc(C)o3)nc3cc(F)ccc32)cc1 [Example 34a, 5-fluoro-1-(4-methoxybenzyl)-2-(5-methyl-2-furyl)benzimidazole]"
13,46.3 µM,"Cc1ccc(-c2nc3cc(Cl)ccc3n2Cc2ccccc2Cl)o1 [Example 45a, 5-chloro-1-(2-chlorobenzyl)-2-(5-methyl-2-furyl)benzimidazole]"
14,> 50 µM,"COc1ccc(Cn2c(-c3ccc(C)o3)nc3ccc(C(=O)c4ccccc4)cc32)cc1 [Example 76, 6-benzoyl-1-(4-methoxybenzyl)-2-(5-methyl-2-furyl)benzimidazole]"
15,4.43 µM,"Cc1ccc(-c2nc3cc(Cl)ccc3n2Cc2ccccc2)o1 [Example 42b, 1-benzyl-5-chloro-2-(5-methyl-2-furyl)benzimidazole]"
16,3.11 µM,"Cc1ccc(-c2nc3ccc(Cl)cc3n2Cc2ccccc2F)o1 [Example 48b, 6-chloro-1-(2-fluorobenzyl)-2-(5-methyl-2-furyl)benzimidazole]"
17,9.56 µM,"Cc1ccc(-c2nc3cc(Cl)c(Cl)cc3n2Cc2ccc(Cl)cc2)o1 [Example 58, 5,6-Dichloro-1-(4-chlorobenzyl)-2-(5-methyl-2-furyl)benzimidazole]"
18,6.01 µM,"Cc1ccc(-c2nc3cc(Cl)ccc3n2Cc2ccccc2C)o1 [Example 53a, 5-chloro-1-(2-methylbenzyl)-2-(5-methyl-2-furyl)benzimidazole]"
19,12.7 µM,"Cc1ccc(-c2nc3ccc(F)cc3n2Cc2ccccc2Cl)o1 [Example 31b, 6-fluoro-1-(2-chlorobenzyl)-2-(5-methyl-2-furyl)benzimidazole]"
20,6.7 µM,"Cc1ccc(-c2nc3cc(Cl)ccc3n2Cc2ccccc2F)o1 [Example 48a, 5-chloro-1-(2-fluorobenzyl)-2-(5-methyl-2-furyl)benzimidazole]"
21,42.9 µM,"Cc1ccc(-c2nc3cc(Cl)c(Cl)cc3n2Cc2ccccc2Cl)o1 [Example 60, 5,6-dichloro-1-(2-chlorobenzyl)-2-(5-methyl-2-furyl)benzimidazole]"
22,62.8 µM,"Cc1ccc(Cn2c(-c3ccc(C)o3)nc3cc(Cl)ccc32)cc1 [Example 51b, 5-chloro-1-(4-methylbenzyl)-2-(5-methyl-2-furyl)benzimidazole]"

row,IC50,Structure (SMILES)
1,3.01 µM,"Cc1ccc(-c2nc3ccccc3n2Cc2cccnc2)o1 [Example 23, 1-(3-Picoyl)-2-(5-methyl-2-furyl)benzimidazole]"
2,4.42 µM,"Cc1ccc(-c2nc3ccc(Cl)cc3n2Cc2cccc(F)c2)o1 [Example 47b, 6-chloro-1-(3-fluorobenzyl)-2-(5-methyl-2-furyl)benzimidazole]"
3,17.2 µM,"Cc1ccc(-c2nc3ccc(C(=O)c4ccccc4)cc3n2Cc2ccccc2)o1 [Example 69a, 1-Benzyl-6-benzoyl-2-(5-methyl-2-furyl)benzimidazole]"
4,> 50 µM,"Cc1ccc(-c2nc3ccc(C(=O)c4ccccc4)cc3n2Cc2ccc(Cl)cc2)o1 [Example 73, 6-Benzoyl-1-(4-chlorobenzyl)-2-(5-methyl-2-furyl)benzimidazole]"
5,> 50 µM,"Cc1ccc(-c2nc3ccc(C(=O)c4ccccc4)cc3n2Cc2ccccc2F)o1 [Example 80, 6-benzoyl-1-(2-fluorobenzyl)-2-(5-methyl-2-furyl)benzimidazole]"
6,3.2 µM,"Cc1ccc(-c2nc3ccc(Cl)cc3n2Cc2ccccc2C)o1 [Example 53b, 6-chloro-1-(2-methylbenzyl)-2-(5-methyl-2-furyl)benzimidazole]"
7,3.3 µM,"COc1ccc2c(c1)nc(-c1ccc(C)o1)n2Cc1ccccc1 [Example 25b, 1-benzyl-5-methoxy-2-(5-methyl-2-furyl)benzimidazole]"
8,25.8 µM,"Cc1ccc(-c2nc3ccc(C(=O)c4ccccc4)cc3n2Cc2ccc(F)cc2)o1 [Example 78, 6-benzoyl-1-(4-fluorobenzyl)-2-(5-methyl-2-furyl)benzimidazole]"
9,26.9 µM,"COc1ccc2c(c1)nc(-c1ccc(C)o1)n2Cc1cccc(C)c1 [Example 27b, 5-methoxy-1-(3-methylbenzyl)-2-(5-methyl-2-furyl)benzimidazole]"
10,> 50 µM,"Cc1ccc(-c2nc3ccc(C(=O)c4ccccc4)cc3[nH]2)o1 [Example 69, 6-benzoyl-2-(5-methyl-2-furyl)benzimidazole]"
11,22.7 µM,"Cc1ccc(-c2nc3cc(F)ccc3n2Cc2ccccc2Cl)o1 [Example 31a, 5-fluoro-1-(2-chlorobenzyl)-2-(5-methyl-2-furyl)benzimidazole]"
12,9.59 µM,"Cc1ccc(-c2nc3cc(Cl)ccc3n2Cc2ccc(F)cc2)o1 [Example 46b, 5chloro-1-(4-fluorobenzyl)-2-(5-methyl-2-furyl)benzimidazole]"
13,19.2 µM,"COc1ccc2nc(-c3ccc(C)o3)n(Cc3cccc(C)c3)c2c1 [Example 27a, 6-methoxy-1-(3-methylbenzyl)-2-(5-methyl-2-furyl)benzimidazole]"
14,2.7 µM,"Cc1ccc(-c2nc3ccc(F)cc3n2Cc2ccccc2F)o1 [Example 38b, 6-Fluoro-1-(2-fluorobenzyl)-2-(5-methyl-2-furyl)benzimidazole]"
15,14.6 µM,"Cc1ccc(-c2nc3ccccc3n2Cc2ccncc2)o1 [Example 24, 1-(4-Picoyl)-2-(5-methyl-2-furyl)benzimidazole]"
16,27 µM,"Cc1ccc(-c2nc3cc(Cl)c(Cl)cc3n2Cc2cccc([N+](=O)[O-])c2)o1 [Example 56, 5,6-dichloro-1-(3-nitrobenzyl)-2-(5-methyl-2-furyl)benzimidazole]"
17,2.61 µM,"Cc1ccc(-c2nc3cc(F)ccc3n2Cc2ccccc2C)o1 [Example 41a, 5-fluoro-1-(2-methylbenzyl)-2-(5-methyl-2-furyl)benzimidazole]"
18,52.1 µM,Cc1ccc(-c2nc3cc(F)ccc3[nH]2)o1 [Example 30]
19,> 50 µM,"Cc1ccc(-c2nc3cc(Cl)c(Cl)cc3n2Cc2ccc([N+](=O)[O-])cc2)o1 [Example 55, 5,6-dichloro-1-(4-nitrobenzyl)-2-(5-methyl-2-furyl)benzimidazole]"
20,8.32 µM,"Cc1ccc(-c2nc3cc(Cl)c(Cl)cc3n2Cc2ccccc2F)o1 [Example 65, 5,6-dichloro-1-(2-fluorobenzyl)-2-(5-methyl-2-furyl) benzimidazole]"
21,5.55 µM,"Cc1ccc(-c2nc3cc(Cl)ccc3n2Cc2cccc(F)c2)o1 [Example 47a, 5-chloro-1-(3-fluorobenzyl)-2-(5-methyl-2-furyl)benzimidazole]"
22,29.6 µM,"COc1ccc(Cn2c(-c3ccc(C)o3)nc3ccc(Cl)cc32)cc1 [Example 49b, 6-chloro-1-(4-methoxybenzyl)-2-(5-methyl-2-furyl)benzimidazole]"

row,Structure (SMILES),IC50
1,"Cc1ccc(-c2nc3ccc(F)cc3n2Cc2cccc(F)c2)o1 [Example 37b, 6-fluoro-1-(3-fluorobenzyl)-2-(5-methyl-2-furyl)benzimidazole]",1.17 µM

# Same assay, conditions: U46619 1 μM; indomethacin concentration not given
row,Structure (SMILES),effect on U46619-induced platelet aggregation
1,"COc1ccc2c(c1)c(CC(=O)O)c(C)n2C(=O)c1ccc(Cl)cc1 [indomethacin, reference compound]",without effects
